According to patent US7022694B2, “Indoles and indolines having 5-HT activity” (Pharmacia & UpJohn Company, priority 2001, dated 2006):

Compound | melting point
CN1CCc2ccc3cc[nH]c3c2CC1 | 150 to 153 °C
c1cnc2c(OCCn3ccc4ccc5c(c43)CCNCC5)cccc2c1 [Example 6, 1-[2-(8-Quinolinyloxy)ethyl]-1,6,7,8,9,10-hexahydroazepino[4,5-g]indole] | 129 to 132 °C
